Assay results from patent US6335346B1 (MACEF, priority 1999, dated 2002).

Assays:
[1] = system: chicks of chair label JA657 strain; experiment: Hypnotic and sedative activities in chicks (alternate lighting, test between 2.00 pm and 3.00 pm); conditions: for ST (sleeping time) / Sedation time (after waking up, Stage 2) / FAT (falling-asleep time): IM; for FAT (falling-asleep time): to the nearest minute
Beagle dogs = experiment: Hypnotic activity in Beagle dogs (polygraphic measurement of the conscious and sleeping states); format: in vivo, dog; conditions: for Mean duration of the state of consciousness: Consciousness / Mean duration of the state of consciousness: Drowsiness / Mean duration: P.S. (paradoxal sleep) / Mean duration: Slow-wave sleep S1 + S2 / Mean duration: Total sleep / Mean latency time: Drowsiness / Mean latency time: P.S. (paradoxal sleep) / Mean latency time: Slow-wave sleep S1: 7 Beagle dogs, IV single bolus; for Mean duration of the state of consciousness: Consciousness / Mean duration of the state of consciousness: Drowsiness / Mean duration: P.S. (paradoxal sleep) / Mean duration: Slow-wave sleep S1 + S2 / Mean duration: Total sleep: 150 min recording; for Hypnotic power (in words): Beagle dogs, IV, sleep with high proportion of slow waves, consciousness reduced, latencies reduced
Protocol: During each test, the dogs are taken to a recording room in which they are connected to a Schwarzer ED 24 polygraph driven by Brainlab® for Windows® by means of a flexible cable. The dog is then placed in a 0.70×1×0.8 m metal cage in which it stays for 150 minutes.
The test products and the placebo were administered intravenously as a single bolus into the anterior median vein. The recordings are noted in periods of 30 seconds following the five states of vigilance defined by Shelton et al.:
deep slow-wave sleep, and
by examining the amplitude and frequency of the 2 frontal EEG plots (frontal), the EOG plots (bilateral) and the EMG plots (neck muscles) as follows:
Conscious: The dogs may be standing, sitting or lying down, or moving between these positions. Their eyes are open. This state includes all the episodes of multiple voltage and frequency with muscular activity.
Drowsy: The dogs are lying down with the eyes closed for most of the time. The EEG plots show slow-wave cycles (5-7 Hz) without the appearance of spindles. Large-amplitude synchronous slow waves (4-7 Hz) appear on a background of rapid activity. The EMG tends to be reduced compared with the conscious state.
Light sleep (SL1 or S1): The dogs are lying down in the stretched ventral position or, usually, in an incomplete circle. The relaxation is total. The EEG plots are characterized by K complexes and/or spindles. The amplitude increases.
Deep sleep (SL2 or S2): The dogs are lying down, with relaxed muscles. They remain without reaction to moderate stimulations (by sound). The slow delta waves (<4 Hz) with an amplitude of at least 70 μV constitute at least 20% of a period of 30 seconds.
Paradoxal sleep (PS): The dogs are lying down with the eyes closed and occasionally display rapid contractions of the eyelids and/or myoclonia, in particular of the labial extensor muscles. The EEG plots are of low voltage and varied frequencies. The EOG plots show rapid contractions. The EMG plot is of low amplitude, with the exception of the short-lived clonus. A period is classified as paradoxal sleep only if the preceding period is a period of sleep. The end of a period of paradoxal sleep is determined by the appearance of K complexes or spindles, or by the appearance of EMG activity.
The test compounds are administered intravenously by means of a vehicle having the composition: 50/50 (V/V) PEG-400/water for injectable preparations, as a single bolus of 10 ml per 12 kg of live weight.
The placebo consists of the intravenous administration of the vehicle alone, having the composition: 50/50 (V/V) PEG-400/water for injectable preparations, as a single bolus of 10 ml per 12 kg of live weight.
The distribution of the observation time spent in each of the stages of consciousness and sleep, as well as the latency times for onset of the first stages of each type of sleep, are given in Table I.

[2] = 0.5 μmol/100 g, batch means of 3 chicks, limit values if >2 batches
[3] = 1 μmol/100 g, batch means of 3 chicks, limit values if >2 batches
[4] = 2 μmol/100 g, batch means of 3 chicks, limit values if >2 batches

Compound	ST (sleeping time) [1, 2]	ST (sleeping time) [1, 3]	Sedation time (after waking up, Stage 2) [1, 3]	FAT (falling-asleep time) [1, 3]	ST (sleeping time) [1, 4]	Sedation time (after waking up, Stage 2) [1, 4]	FAT (falling-asleep time) [1, 4]	other results
COc1ccc2[nH]c3c(c2c1)CCN=C3C [10-METHOXYHARMALAN, 10-methoxy harmalan]								ST (sleeping time) ([1]; 1.4 μmol/100 g (3 mg/kg)): 0; Sedation time (after waking up, Stage 2) ([1]; 1.4 μmol/100 g (3 mg/kg)): 0
CN1C(=O)CN=C(c2ccccc2)c2cc(Cl)ccc21 [DIAZEPAM, diazepam]	10-50	24-70	17-20	2-7	81-100	14-15	2-5	FAT (falling-asleep time) [1, 2]: 3-6
C=C1c2[nH]c3ccc(OC)cc3c(=O)c2CN1C(C)=O [Example 1, 2-Acetyl-7-methoxy-3-methylene-9-oxo-1,3,4,9-tetrahydropyrrolo[3,4-b]quinoline]					30	35	10.5	
CCC1=C2c3[nH]c4ccc(OC)cc4c(=O)c3CN2C(=O)CC1 [Example 4]		30	47	13				Mean duration of the state of consciousness: Consciousness (Beagle dogs; 1.5 μmol/kg): 115.4 min; Mean duration of the state of consciousness: Drowsiness (Beagle dogs; 1.5 μmol/kg): 15.9 min; Mean duration: P.S. (paradoxal sleep) (Beagle dogs; 1.5 μmol/kg): 2.4 min; Mean duration: Slow-wave sleep S1 + S2 (Beagle dogs; 1.5 μmol/kg): 16.3 min; Mean duration: Total sleep (Beagle dogs; 1.5 μmol/kg): 34.6 min; Mean latency time: Drowsiness (Beagle dogs; 1.5 μmol/kg): 63.8 min; Mean latency time: P.S. (paradoxal sleep) (Beagle dogs; 1.5 μmol/kg): 114.8 min; Mean latency time: Slow-wave sleep S1 (Beagle dogs; 1.5 μmol/kg): 84.8 min; Hypnotic power (in words) (Beagle dogs): marked hypnotic power
COc1ccc2[nH]c3c(c(=O)c2c1)CN1C(=O)CCC(c2ccccc2)=C31 [Example 5]								Mean duration of the state of consciousness: Consciousness (Beagle dogs; 1 μmol/kg): 108.1 min; Mean duration of the state of consciousness: Drowsiness (Beagle dogs; 1 μmol/kg): 15.8 min; Mean duration: P.S. (paradoxal sleep) (Beagle dogs; 1 μmol/kg): 2.6 min; Mean duration: Slow-wave sleep S1 + S2 (Beagle dogs; 1 μmol/kg): 23.4 min; Mean duration: Total sleep (Beagle dogs; 1 μmol/kg): 41.9 min; Mean latency time: Drowsiness (Beagle dogs; 1 μmol/kg): 51.7 min; Mean latency time: P.S. (paradoxal sleep) (Beagle dogs; 1 μmol/kg): 110.7 min; Mean latency time: Slow-wave sleep S1 (Beagle dogs; 1 μmol/kg): 69.0 min; Hypnotic power (in words) (Beagle dogs): marked hypnotic power; ST (sleeping time) ([1]; 0.87 μmol/100 g (3.12 mg/kg)): 36; Sedation time (after waking up, Stage 2) ([1]; 0.87 μmol/100 g (3.12 mg/kg)): 44; FAT (falling-asleep time) ([1]; 0.87 μmol/100 g (3.12 mg/kg)): 10
COc1ccc2[nH]c3c(c(=O)c2c1)CN(C(C)=O)C3C (stereo not drawn) [Example 6, 2-Acetyl-7-methoxy-3-methyl-9-oxo-1,3,4,9-tetrahydropyrrolo[3,4-b]quinoline]					33	27	15	
CCC1CCC(=O)N2Cc3c([nH]c4ccc(OC)cc4c3=O)C12 (stereo not drawn) [Example 9]		36	44	7				
COc1ccc2c3c([nH]c2c1)C(C)=NCC3 [HARMALIN, harmaline]								ST (sleeping time) ([1]; 1.4 μmol/100 g (3 mg/kg)): 0; Sedation time (after waking up, Stage 2) ([1]; 1.4 μmol/100 g (3 mg/kg)): 0
COc1ccc2[nH]cc(CCNC(C)=O)c2c1 [MELATONIN, melatonin]	0	0	16-36		0	47-105		Hypnotic activity (in words) ([1]; administration during the daylight phase between 2.00 pm and 3.00 pm): no hypnotic activity
CCCC(C)C1(CC)C(=O)NC(=O)NC1=O (stereo not drawn) [PENTOBARBITAL, pentobarbital sodium]	0	36		13				
